Reference: patent US12648569B2 (priority 2022, dated 2026)
Where a name gives a salt, the structure may show the parent alone.

Each compound was assayed on Ralstonia solanacearum MN R.s1 strain. Settings: tomato seedlings, leaf cutting with scissors soaked in agent + R.s suspension, 7 d at 30° C.
Assay type: in vivo

Compound | Mortality/%
neophytomycin [Positive control group] | 16.67%

Same assay, conditions: tomato seedlings, leaf cutting, relative to negative control

Compound | Relative control effect/%
neophytomycin [Positive control group] | 81.01%

These compounds were tested on Ralstonia solanacearum R.s (MN R.s1). Settings: tomato seedlings, roots soaked 10 min, R.s irrigated after 7 d.
Assay type: in vivo

Compound | Control effect/% | Disease index/% | Morbidity/%
neophytomycin [Positive control group] | 37.30% | 14.00% | 16.70%

These compounds were tested on M173. Settings: not given.

Compound | Compatibility
O=[N+]([O-])c1c(Cl)c(Cl)c(Cl)c(Cl)c1Cl [Quintozene] | Compatible
N#Cc1c(Cl)c(Cl)c(Cl)c(C#N)c1Cl [Chlorothalonil] | Compatible
CCO[PH](=O)O [Fosetyl-aluminum] | Compatible
NC(N)=O [Urea] | Compatible
N.N.O=S(=O)(O)O [Ammonium sulfate] | Compatible
CN1COCN(Cc2cnc(Cl)s2)/C1=N\[N+](=O)[O-] [Thiamethoxam] | Compatible
COCC(=O)N(c1c(C)cccc1C)[C@H](C)C(=O)OC [Metalaxyl-M] | Compatible
CN/C(=N/CC1CCOC1)N[N+](=O)[O-] (stereo not shown) [Dinotefuran] | Compatible
CCCOC(=O)NCCCN(C)C [Propamocarb hydrochloride] | Compatible
O=[N+]([O-])c1cc(C(F)(F)F)c(Cl)c([N+](=O)[O-])c1Nc1ncc(C(F)(F)F)cc1Cl [Fluazinam] | Compatible
CC1(C)[C@H](C(=O)O[C@H](C#N)c2cccc(Oc3ccccc3)c2)[C@@H]1/C=C(\Cl)C(F)(F)F [Gamma-cyhalothrin] | Compatible
CN(C)C(=S)SSC(=S)N(C)C [Thiram] | Compatible
O=P([O-])(O)O.[K+] | Compatible
COC(=O)Nc1nc2ccccc2[nH]1 [Carbendazim] | Compatible
